Among the test systems are SKOV3; LOX; HT29; T47D.
Test in all cases: Microculture tetrazolium assay
Common to all, as to assay type: cell-based

The next assay deals with SKVLB. Conditions: for VLB/OV3: IC50 ratio SKVLB/SKOV3; for pIC50: SKVLB.
[1] abbreviates: Homo sapiens, SK-OV-3, SKOV3, read-out: IC50.
Setting [2] is: Homo sapiens, HT-29, HT29, read-out: IC50.

pIC50: −log10 of the molar value. Where a name gives a salt, the structure may show the parent alone. Read-outs that look alike come from different tables or passages of the source. A value given as a limit tells only on which side of the number the result lay.

Usually pIC50 stands for the negative decadic logarithm of the IC50, by convention in mol/L. For `CC(=O)[C@@H]1CC2=C(C(=O)c3cc4ccccc4c(O)c3C2=O)[C@@H](O[C@H]2O[C@H](CO)[C@@H](O)[C@H](O)[C@H]2NC(=O)N(CCCl)N=O)O1` [BCH-2073, (1'R, 1R,3S)-3-Aceto-6-hydroxy-1-(2-deoxy-2-chloroethylnitrosoureido-D-glucopyranose)-5,12-dioxo-3,4,5,12-tetrahydro-1H-anthra[2,3-C]pyran], the pIC50 is 5.29 in the assay on SKOV3 (Homo sapiens, SK-OV-3, SKOV3); 6.09 with LOX; 5.18 with HT29 (Homo sapiens, HT-29, HT29); 5.21 in the assay with T47D (Homo sapiens); 4.86 in the assay on SKVLB. The VLB/OV3 with SKVLB is on record as 2.67.

With `CC(=NO)[C@H]1Cc2c(O)c3c(c(O)c2[C@H](O[C@H]2C[C@H](N)[C@H](O)[C@H](C)O2)O1)C(=O)c1ccccc1C3=O` [BCH-2074, (1'S, 1S,3R)-3-(Oximoethyl)-5,12-dihydroxy-1(2,3,6-trideoxy-3-amino-L-lyxohexolpyranose)-6,11-dioxo-3,4,6,11-tetrahydro-1H-anthra[2,3-C]pyran hydrochloride], the pIC50 in the assay on SKOV3 (setting [1]) was 6.51; with LOX (read-out: IC50), 6.83; with HT29 (setting [2]), 6.23; with T47D (Homo sapiens, read-out: IC50), 6.16; in the assay with SKVLB (read-out: IC50), 4.85. Besides, the VLB/OV3 in the assay with SKVLB is 45.48.

`CCC1COC(OC2CC(NC(=O)C(F)(F)F)C(O)C(C)O2)C2=C1C(=O)c1c(cc3ccccc3c1O)C2=O` [BCH-2080, (1'S,1S,4S)-5,12-Dioxo-4-ethyl-6-hydroxy-1-(2',3',6'-trideoxy-3'-trifluoroacetamido-L-lyxohexopyranose)-3,4,5,12-tetrahydroanthraceno-[2,3-c]-pyran]: the pIC50 in the assay with SKOV3 (setting [1]) is 5.62; in the assay on LOX (read-out: IC50), 5.68; with HT29 (setting [2]) it was 5.52; in the assay on T47D (Homo sapiens, read-out: IC50) it was 5.44; in the assay with SKVLB (read-out: IC50) it was 5.33.

In the case of `CCC1COC(OC2CC(N)C(O)C(C)O2)c2c(O)c3c(c(O)c21)C(=O)c1ccccc1C3=O` [BCH-2086, (1'S,1R,4R)-5,12-Dihydroxy-4-ethyl-1-(2',3',6'-trideoxy-3'-amino-L-lyxohexopyranose)-1,2,3,4-tetrahydro-(2-oxygen)-naphthacene-6,11-dione-hydrochloride], the pIC50 with SKOV3 (setting [1]) was 6.07; in the assay on LOX (read-out: IC50), 6.44; with HT29 (setting [2]), 6.19; in the assay on T47D (Homo sapiens, read-out: IC50) it was 5.85; in the assay with SKVLB (read-out: IC50), 5.77.

As for `CCCCC[C@H]1Cc2c(O)c3c(c(O)c2[C@H](O[C@H]2C[C@H](N)[C@H](O)[C@H](C)O2)O1)C(=O)c1ccccc1C3=O` [BCH-2088, (1'S,1S,3S)-5,12-mihydroxy-3-pentyl-1-(2',3',6'-trideoxy-3'-amino-L-lyxohexopyranose)-1,2,3,4-tetrahydro-(2-oxygen)-naphtacene-6,11-dione-hydrochloride], the pIC50 was 6.24 in the assay on SKOV3 (setting [1]); 6.70 in the assay on LOX (read-out: IC50); 7.62 with HT29 (setting [2]); 6.76 with T47D (Homo sapiens, read-out: IC50); 5.96 with SKVLB (read-out: IC50). Also, in the assay on SKVLB, the VLB/OV3 is given as 1.90.

For the compound `CCCCCC1Cc2c(O)c3c(c(O)c2C(O[C@H]2C[C@H](N)[C@H](O)[C@H](C)O2)O1)C(=O)c1ccccc1C3=O` (stereo partly drawn) [BCH-2089, (1'S,1R,3R)-5,12-Dihydroxy-3-pentyl-1-(2',3',6'-trideoxy-3'-amino-L-lyxohexopyranose)-1,2,3,4-tetrahydro-(2-oxygen)-naphtacene-6,11-dione-hydrochloride], the pIC50 in the assay with SKOV3 (setting [1]) was 6.48; with LOX (read-out: IC50) it was 6.98; with HT29 (setting [2]) it was 6.71; with T47D (Homo sapiens, read-out: IC50) it was 6.70; in the assay on SKVLB (read-out: IC50), 6.38. In the assay with SKVLB, the VLB/OV3 was 1.27.

For `CC(=O)[C@@H]1CC2=C(C(=O)c3cc4ccccc4c(O)c3C2=O)[C@@H](O[C@H]2C[C@H](NC(=O)C(F)(F)F)[C@H](OS(C)(=O)=O)[C@H](C)O2)O1` [BCH-2093, (1S,1R,3S)-Methyl-(6-hydroxy-1-(2',3',4',6'-tetradeoxy-3'-trifluoroacetamido-4'-O-methanesulfonyl-L-lyxohexopyranose)-5,12-dioxo-3,4,5,12-tetrahydroanthraceno[2,3-c]pyran-3-yl)ketone], the pIC50 in the assay with SKOV3 (setting [1]) was 4.99; in the assay with LOX (read-out: IC50) it was 5.36; with HT29 (setting [2]), 5.55; in the assay on T47D (Homo sapiens, read-out: IC50) it was 4.80; in the assay with SKVLB (read-out: IC50), 4.41. Further, the VLB/OV3 in the assay with SKVLB was 3.82.

On to `CC(=O)C1CC2=C(C(=O)c3cc4ccccc4c(O)c3C2=O)C(O[C@H]2C[C@H](NC(=O)C(F)(F)F)[C@H](OS(C)(=O)=O)[C@H](C)O2)O1` (stereo partly drawn) [BCH-2094], for which the pIC50 with SKOV3 (setting [1]) is 5.33; in the assay on LOX (read-out: IC50), 5.85; with HT29 (setting [2]), 5.97; with T47D (Homo sapiens, read-out: IC50), 5.19; in the assay with SKVLB (read-out: IC50) it was 4.92. Also, the VLB/OV3 in the assay with SKVLB was 2.55.

Take “(1'S,1R,3R) and (1'S,1S,3S)-5,12-dioxo-3-ethyl-6-hydroxy-1-(2',3',6'-trideoxy-3'-trifluoroacetamido-4'-O-p-nitrobenzoyl-L-lyxohexopyranose)-3,4,5,12-tetrahydroanthraceno[2,3-C]pyran [BCH-1199]”: the pIC50 with SKOV3 (SKOV3, read-out: IC50) was 4.49; with LOX (read-out: IC50) it was < 4.00; in the assay with HT29 (HT29, read-out: IC50) it was < 4.00; in the assay with T47D (read-out: IC50), 4.34; in the assay with SKVLB (read-out: IC50), < 4.00.

For the compound “(1'S,1R,3S) and (1'S,1S,3R)-Methyl-1-(2',3',6'-trideoxy-3-trifluoroacetamido-4'-O-p-nitrobenzoyl-L-lyxohexopyranose)-6,11'dioxo-5'-hydroxy-12-acetoxy-3,4,6,11-tetrahydroanthra-ceno-[2,3-C]-pyran-3-yl) ketone [BCH-1163]”, the pIC50 in the assay on SKOV3 (SKOV3, read-out: IC50) is 4.96; in the assay on LOX (read-out: IC50) it was 4.58; in the assay with HT29 (HT29, read-out: IC50) it was 5.33; in the assay with T47D (read-out: IC50), 5.30; with SKVLB (read-out: IC50), 4.94. Further, the VLB/OV3 in the assay on SKVLB came out at 1.05.
